Source: patent US20150141360A1, “BIOCIDAL COMPOSITIONS” (CEBEC GROUP LTD., priority 2012, published 2015)
Values after ≈ are worked out from the molar mass of the structure shown. Like-named read-outs stand apart in the source and are kept apart here.

Assays:
[1] = tested on: isolated strains from food production environments; type: cell-based
Excerpt: In the early stages of these investigations, efforts were concentrated on two zoonotic pathogens namely verocytoxigenic Escherichia coli O157 and Salmonella species, along with the recently described powdered infant formula pathogen Cronobacter species. […] Some of the genera appeared to be more susceptible compared with others, as in the case of Cronobacter. Attempts to develop tolerant phenotypes were marginally successful and where this was generated, the phenotype was unstable. […] Highly-tolerant mutant phenotypes were obtained and these are currently being studied in detail, using a dedicated technical pipeline, described above. It was decided that it would be of interest to include the food-borne zoonotic pathogen Campylobacter and to evaluate its susceptibility/tolerance to the same panel compounds. Once again, it could be shown that Campylobacter was susceptible. However, as the panel of compounds used could be described as synthetic, the availability of C-Activ-12 presented the opportunity to re-evaluate the responses of these bacteria to this natural biocide. […] In the current project proposal, this inhibitory effect will be characterised in detail, to provide a means of understanding the mode of action. […] C-Activ-12 is a novel natural biocide. The formulation ingredients are FDA GRAS approved comprising organic acids and natural fruit extracted polyphenols. The broad spectrum activity of the formulation resulted it its inclusion in a University College Dublin Government funded independent study under the FIRM (see hereunder) research program. The program studies the effectiveness of products used to manage micro-organisms/pathogens prevalent in the food sector, comparing effectiveness & testing against isolated strains. […] The Irish Department of Agriculture and Food's Food Institutional Research Measure (FIRM) is funded under the National Development Plan 2007-2013. FIRM is the primary national funding mechanism for food research in third level colleges and research institutes. FIRM is a public good competitive programme whereby multi-disciplinary teams from two or more institutions usually carry out the research projects. Research outputs are communicated to industry by a dedicated dissemination team known as RELAY. FIRM aims to develop public good technologies that will underpin a competitive, innovative and sustainable food manufacturing and marketing sector. The programme is creating a base of knowledge and expertise in generic technologies that will support a modern, consumer-focused industry and build Ireland's capacity for R&D. A key output of the FIRM is highly trained young researchers at PhD and postdoctoral level, with specialist skills particularly relevant to the Irish food sector. The following pages provide an overview of the effectiveness of CeBeC's C-Activ-12 in killing micro-organisms. Standard testing protocols were first applied by AIT CBBR under British & European Food Grade Sanitiser Standard BS EN 1276, requiring a log 5 reduction from a log 7 to a log 2. The activity of C-Activ-12 highlighted a greater than log 6 reduction from a log 8. Based on the results under BS EN 1276, UCD added the product under the FIRM study whereby pathogens were isolated from food production environments. The rationale behind this approach is that most standards rely on ATCC & NCTC cultures which are more than often easier to kill than isolates.

[2] = tested on: Escherichia coli ATCC 25922; assay: Preliminary evaluation of bactericidal efficacy (5 min treatment, colony counts); type: cell-based; set-up: key: TNTC=To Numerous To Count; details: 5 min exposure to 0.5% v/v
Description: The compositions are suitable for use in the food and food processing industry. For rapid screening, a preliminary method allowed selection of the most efficient formulations. […] The composition of each formulation (0.5% v/v) was used blind to ensure no bias. The formulation was reviewed after each set of tests to improve the products composition and efficiency. Prototype formulations were prepared under aseptic conditions.
Typically, an overnight culture of bacteria strains were diluted 1:1000 in sterile hard water to a final density of approx 1×10^6 bacteria. A 1 ml volume of bacteria was treated for 5 minutes at room temperature with 500 μl of antimicrobial solutions. […] The treatment was ceased by the addition of 200 μl of the neutralising solution. All strains were serially diluted to 10^−5 in sterile peptone water and 100 μl were plated in duplicate on the appropriate plate and then incubated at 37° C. for 24 hours except Campylobacter jejuni and Enterococcus hirae. The appropriate controls were included in each test e.g. an unopened agar plate and a set of serially diluted, untreated bacteria. After mesophilic aerobic incubation (or mesophilic microaerophilic incubation for C. jejuni), the number of colonies was enumerated and compared to the untreated controls to determine if a Log order reduction was obtained.

[3] = 74 strains, unheaded column beside Stdev (presumably mean)

| Structure (SMILES) | MBC [1, 3] | MIC [1, 3] | MBC Range ([1]; range over 74 strains) | MIC Range ([1]; range over 74 strains) | E. coli bacterial colony counts (average of two replicates), Bacterial Dilution 10^−1 [2] | E. coli bacterial colony counts (average of two replicates), Bacterial Dilution 10^−2 [2] | E. coli bacterial colony counts (average of two replicates), Bacterial Dilution 10^−3 [2] | E. coli bacterial colony counts (average of two replicates), Bacterial Dilution 10^−4 [2] | E. coli bacterial colony counts (average of two replicates), Bacterial Dilution 10^−5 [2] | E. coli bacterial colony counts (average of two replicates), Bacterial Dilution Neat [2] | also measured |
| --- | --- | --- | --- | --- | --- | --- | --- | --- | --- | --- | --- |
| O=C(O)c1ccccc1 [Benzoic Acid] | – | – | – | – | – | – | – | – | – | – | MBC [1]: 920.79 µg/mL (≈ 7540 µM); MBC Range [1]: 165 to 1320 µg/mL; MIC [1]: 810.51 µg/mL (≈ 6640 µM); MIC Range [1]: 247.5 to 1320 µg/mL |
| O=C(O)/C=C/c1ccccc1 [Cininamic Acid] | 119.40 µg/mL (≈ 806 µM) | 95.12 µg/mL (≈ 642 µM) | 23.44 to 421.88 µg/mL | 23.44 to 140.65 µg/mL | – | – | – | – | – | – | – |
| O=C(O)CC(O)C(=O)O (stereo not shown) [E3, MALIC ACID] | – | – | – | – | TNTC | TNTC | TNTC | TNTC | >61 | TNTC | – |
| O=C(O)CC(O)(CC(=O)O)C(=O)O [E4, CITRIC ACID] | – | – | – | – | TNTC | TNTC | >159 | TNTC | 10 | TNTC | – |
| O=C1O[C@H]([C@@H](O)CO)C(O)=C1O [E5, ASCORBIC ACID] | – | – | – | – | TNTC | TNTC | TNTC | TNTC | TNTC | TNTC | – |
| C=CCc1ccc(O)c(OC)c1 [Eugenol] | 0.99 ul/ml | 0.86 ul/ml | 0.25-2 ul/ml | 0.25-2 ul/ml | – | – | – | – | – | – | – |
| CC(C)=CCC/C(C)=C/CO [Geraniol] | 9.46 ul/ml | 8.29 ul/ml | 0.94-22.5 ul/ml | 0.94-15^ ul/ml | – | – | – | – | – | – | – |
| Cc1ccc(C(C)C)c(O)c1 [Thymol] | 121.38 µg/mL (≈ 808 µM) | 85.73 µg/mL (≈ 571 µM) | 4.92 to 315 µg/mL | 19.69-315^ ug/ml | – | – | – | – | – | – | – |
| O=C/C=C/c1ccccc1 [Trans-cinnaldeheyde] | 0.50 ul/ml | 0.43 ul/ml | 0.05-0.8 ul/ml | 0.2-0.8 ul/ml | – | – | – | – | – | – | – |
| CC1=CC[C@@H](C(C)(C)O)CC1 [a-Terpineol] | 2.84 ul/ml | 2.43 ul/ml | 0.42-7.59 ul/ml | 0.53-7.59 ul/ml | – | – | – | – | – | – | – |
